Results taken from patent US11510908B2, “Protein translation inhibitors and uses thereof” (University of Maryland, Baltimore, priority 2019, dated 2022).

What was measured:
hnRNP A18 [1] = target: T1, hnRNP A18 (Homo sapiens, UniProt Q14011); test: RNA band shift (EMSA) with His-hnRNP A18 and biotinylated hnRNP A18 RNA motif 1; format: binding; parameters: recombinant full length His-hnRNP A18 incubated with biotinylated hnRNP A18 RNA motif 1; conditions: increasing concentrations of compound
T1 sequence (Q14011 1-172): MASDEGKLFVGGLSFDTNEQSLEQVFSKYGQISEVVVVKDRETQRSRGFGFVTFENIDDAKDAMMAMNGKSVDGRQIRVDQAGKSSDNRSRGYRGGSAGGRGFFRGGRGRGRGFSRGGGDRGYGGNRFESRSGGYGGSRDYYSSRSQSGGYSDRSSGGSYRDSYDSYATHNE
Method: RNA band shifts were performed according to the manufacturer recommendations (LightShift Chemiluminescent RNA EMSA kit, Thermo Scientific, Rockford, Ill.). Briefly recombinant His-hnRNP A18 or His-hnRNP A1 (1 μg) were incubated with biotinylated RNA (hnRNP A18 motif 1, IRE 28 or 51 nucleotides) in 20 μl and run on native polyacrylamide gels transfer to nylon probes and hybridize with streptavidin HRP antibody.

hnRNP A18 RRM = target: T2, hnRNP A18 RRM (Homo sapiens, UniProt Q14011); test: NMR HSQC/TROSY chemical shift perturbation screen; format: binding; conditions: 150 μM hnRNP A18, excess compound, 298 K
T2 construct: A18 RNA recognition motif (residues 1-92 of hnRNP A18 wildtype) was expressed and purified; 6x-His (N, cleaved yes); protein G B1 domain (GB1) (N, cleaved yes); made in house; host or cells: E. coli BLD21(DE3) (so in the source)
Method: The hnRNP A18 RRM samples used for compound screening via high field NMR spectroscopy using a series of single-quantum coherence (HSQC) experiments contained 0.1 to 0.2 mM ^15N-labeled hnRNP A18 RRM, ultrapure water, 10% D2O, 5% d6-DMSO and up to 5 mM of each of the forty compounds tested, as based on their solubility. All of the HSQC data were collected at 25° C. with a Bruker Avance 800 US2 NMR spectrometer (800.27 MHz, ^1H) equipped with pulsed-field gradients, four frequency channels, an automatic sample changer, and a TXI cryogenic probe. Backbone resonance assignments in the presence of compounds were achieved via compound titrations and monitoring chemical shift changes until solubility limits were reached (<5 mM compound). Data were processed with NMRPipe (35), and proton chemical shifts and their perturbations upon binding the various compounds were reported with respect to the H2O or HDO signal taken as 4.698 ppm relative to external TSP (0.0 ppm).

[2] = system: Iron Responsive Protein (IRP); test: RNA band shift (EMSA) with Iron Responsive Protein and Iron Responsive Element (specificity); format: binding; conditions: very high concentration, decreased specificity
hnRNP A18 [3] = target: T1, hnRNP A18; test: Fluorescence anisotropy competition binding of hnRNP A18 to fluorescein tagged RNA motif 1; parameters: recombinant full length His-hnRNP A18 incubated with biotinylated hnRNP A18 RNA motif 1; conditions: 25° C., 30 min, read-out: IC50, inhibition of hnRNP A18 binding to its cognate RNA
Method: Quantitative assessments of hnRNP A18-RNA binding equilibria were performed using fluorescence anisotropy essentially as described (36). Briefly, binding reactions (100 μl) were assembled as described for RNA band shift (EMSAs) but in absence of glycerol and using fluorescein labeled rather than biotin labeled RNA substrates. Reactions were incubated at 25° C. for 30 min; preliminary kinetics runs verified that equilibrium was attained within this period. Subsequently, total reaction anisotropy (At) and fluorescence intensity were measured using a Beacon 2000 Fluorescence Polarization System (Panvera) equipped with a 490-nm excitation filter and a 535-nm emission filter. Drug-dependent changes in At were analyzed by nonlinear regression using the four parameter logistic equation (Eq.1) and PRISM software (GraphPad).
Here, APR represents the intrinsic anisotropy of the protein:RNA complex in the absence of tested compounds, AR is the anisotropy of the RNA ligand in the absence of protein, [drug] is the concentration of each tested compound, and h is the Hill slope.

hnRNP A18 [4] = target: T1, hnRNP A18; test: Cellular Engagement Thermal Shift Assay (CETSA) in LOX-IM-VI cells; format: cell-based; parameters: expressed in transfected cells; host or cells: LOX-IM-VI human melanoma cells stably transfected with hnRNP A18-GFP; conditions: 3 hours, heat shock at Tagg(75), read-out: EC50, binding and stabilization of hnRNP A18 in cells
Method: Cellular Thermal Shift Assay (CETSA)
Cellular thermal shift assay (CETSA) was performed with LOX-IM-VI hnRNP
A18 cells cultured in RPMI medium supplemented with 10% FBS. For an initial determination of the melting profile of hnRNP A18, cells dispensed into 96-well PCR plate in the above medium (5000 cells/well/50 μl), were subjected to temperature gradient (40-60° C.) for 10 min. Cold non-denaturing lysis buffer (PBS supplemented with 0.1% TritonX-100 and 1× protease inhibitors) was added to wells, and the plate was rocked and incubated for 15 min on ice. Subsequently, centrifugation was performed at 14.000 rpm to sediment the unstable protein content. Supernatant was collected, and SDS-PAGE gel was run, and immuno-detection was performed using poly-clonal anti-hnRNP A18 antibody (Sigma, CIRP). hnRNP A18 band was quantified on LI-COR C-Digit Blot Scanner, and subsequently Tagg(50) and Tagg(75) values were calculated for hnRNP A18.
In a subsequent run, cells were treated at various doses (80, 40, 20, 10, 5, 2.5 and 1.25 μM) of Compound 2 (Chembridge 7646184), Compound 4 (OTAVA 219853) and Compound 5 (VITAS STK508411) together with DMSO control, for 3 hours. Cells were then subjected to heat shock at Tagg(75) for 10 min, and unstable protein was removed by centrifugation step. Following an immuno-blotting step, bands of stable hnRNP A18 protein was quantified, normalized to loading control and plotted using GraphPad Prism software. EC50 values of Compound 2, Compound 4 and Compound 5 compounds were calculated.

[5] = system: melanoma LOX-IM-VI, colon cancer RKO, Glioblastoma D54, pancreatic cancer MiaPaca, MDA-MD-231 cells; test: Cell viability of human cancer cells (Apo-Tox-Glo); format: cell-based; conditions: 24 hrs, increasing concentration
Method: (§1) Cell Viability and Tumor Growth In Vivo
(§2) Cells viability was measured on normal human mammary epithelial cells (HMEC: ATCC, Gaithersburg, Md.) grown as recommended by the manufacturer and human cancer cells including melanoma LOX-IM-VI, colon cancer RKO, Gliobalstoma D54, pancreatic cancer MiaPaca and triple negative breast cancer MDA-MD-231 cells (5) with the Apo-Tox-Glo kit (Promega, Madison, Wis.) as recommended by the manufacturer. The cells were plated (10,000 cells per well) on a 96 well plate and exposed to increasing concentration of chemical probes for 24 hrs and reacted with the viability reagent as recommended. Fluorescence was measured on a plate reader at 400 nm Ex/505 nm Em.

[6] = PAMPA (parallel artificial membrane permeability assay); format: in vitro ADME; conditions: measured at pH 5.0 and 6.8, room temperature, ~4 hours, read-out: Effective permeability Pe
Method: The PAMPA assay was performed by Pion (Billerica, Mass.) on 81 compounds selected out of the 264 compounds showing at least 80% similarity to Compound 1, logP<5.0, and 4DBA closer to 0 (>−4.9). The compounds were dissolved at 10 mM in Dimethyl sulfoxide (DMSO, spectrophotometric grade) and filtered (0.2 μm pore size, hyrodophylic PVDF). The assays were carried in the PAMPA STIRWELL plates (lot A0440) and measured at pH 5.0 and 6.8 at room temperature for ˜4 hours on a PAMPA EVOLUTION instrument.

[7] = system: normal human mammary epithelial cells (HMEC); test: Cell viability of normal human mammary epithelial cells (Apo-Tox-Glo); format: cell-based; conditions: 24 hrs; for Effect on normal cells viability: Compounds 2 and 3 at doses as high as 150 μM
Method: as §1, §2

[8] = system: hnRNP A18 targeted 3'UTR (Trx); test: CAT-Trx 3'UTR reporter assay (CAT ELISA) in LOX-IM VI cells; format: cell-based, human; conditions: increasing amounts of drugs, next day
Method: CAT-ELISA was performed as recommended by the manufacturer (Sigma-Aldrich). Briefly, human melanoma LOX-IM VI cells stably transfected with hnRNP A18-GFP (9) were transiently transfected with a CAT reporter vector harboring Trx 3′UTR (16). Twenty-four hours later the cells were distributed in 6 well plates and treated with increasing amounts of drugs. The next day, the cells were washed, and protein extracted. […] Cleavage of the substrate catalyzed by the peroxidase enzyme was measured on a plate reader at 405 nm.
In order to determine whether hnRNP A18 binding to these compounds disrupted its cellular functions, a cell-based assay was developed as a read out for hnRNP A18 RNA binding activity. A reporter vector harboring a hnRNP A18 targeted 3′UTR (Trx; (16)) downstream of a CAT gene was engineered. Binding of hnRNP A18 to the targeted 3′UTR is expected to stabilize the CAT transcript and increase CAT protein production, which is then measured by ELISA.

Aqueous solubility = format: physicochemical

SMILES | Disruption of hnRNP A18 RNA binding activity by band shift (hnRNP A18 [1]) | Chemical shift perturbations of hnRNP A18 RRM residues (hnRNP A18 RRM) | Concentration at which binding disruption of IRP to Iron Responsive Element was observed [2] [mM] | IC50 (hnRNP A18 [3]) [µM] | EC50 (hnRNP A18 [4]) [µM] | Effect on cancer cells viability [5] | Papp [6] [×10⁻⁶ cm/s] | Effect on normal cells viability [7] | Toxicity to normal cells [7] | Production of CAT protein [8] | Aqueous solubility (Aqueous solubility)
Cc1nc(NC(=O)c2ccccc2)sc1-c1csc(Nc2ccc(O)c(C(=O)O)c2)n1 [Compound 1] | out-competed hnRNP A18 RNA consensus motif | most significant chemical shift perturbations | 5.5 | 6.4 |  |  |  |  |  |  | 
CC(=O)Oc1ccccc1C(=O)Nc1ccccc1Sc1ncnc2scc(-c3ccccc3)c12 [Compound 2] | specifically disrupt hnRNP A18 RNA binding activity |  |  | 15 | 4.7 | killing all cancer cell lines tested | > 20 | without affecting the viability of normal human epithelial cells |  |  | 
CC(=O)Oc1cccc(C(=O)Nc2ccc(C(=O)Nc3nccs3)cc2)c1 [Compound 3] | specifically disrupt hnRNP A18 RNA binding activity |  |  | 13 |  | killing all cancer cell lines tested | > 20 | without affecting the viability of normal human epithelial cells |  |  | 
COc1ccccc1C(=O)Nc1nc(-c2ccc(C)cc2)c(NC(C)=O)s1 [Compound 4] | specifically disrupt hnRNP A18 RNA binding activity |  |  | 39 | 2.7 | preferentially killing cancer cells although less efficiently than Compounds 2 and 3 | > 20 | no significant effect on normal cells viability |  |  | 
Cc1sc(NC(=O)c2ccccc2)nc1OC(=O)c1ccccc1 [Compound 5] | specifically disrupt hnRNP A18 RNA binding activity |  |  | 2.9 | 23.8 | least effective | > 20 |  | 20-40% |  | 
COc1cccc(C(=O)Nc2nc(-c3ccc(C)cc3)c(NC(=O)c3ccco3)s2)c1 [Compound 6] | specifically competed for hnRNP A18 binding activity |  |  |  |  |  |  |  |  | could only reduce CAT protein levels at the highest concentration | Low aqueous solubility
